Where two headings read alike, the source gives them in different places.
Columns and labels:
in vitro = settings: human, Caco-2, pH 7.4
Procedure, shortened: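 Bidirectional permeability across Caco-2 monolayers in HBSS (pH 7.4) at a test concentration of 10 μM, incubated 0 and 90 min at 37° C (n=2). Monolayer integrity was assessed by TEER and Lucifer yellow. Papp was derived from LC-MS/MS-measured concentrations.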

[1] = target: T1, CXCR-4 transfected U87 cell line (U87.CXCR4) (Homo sapiens, UniProt P61073); assay: Intracellular CXCL-12-induced calcium mobilization assay (FLIPR); format: cell-based; settings: U87.CXCR4 cells; CXCL-12 25-50 ng/mL; compound added 15 min before; read-out: IC50 CXCL-12 Ca^2+ flux U87.CXCR4+
T1 construct: expressed in transfected cells; host or cells: U87 (U87.CXCR4)
T1 sequence (P61073 whole entry): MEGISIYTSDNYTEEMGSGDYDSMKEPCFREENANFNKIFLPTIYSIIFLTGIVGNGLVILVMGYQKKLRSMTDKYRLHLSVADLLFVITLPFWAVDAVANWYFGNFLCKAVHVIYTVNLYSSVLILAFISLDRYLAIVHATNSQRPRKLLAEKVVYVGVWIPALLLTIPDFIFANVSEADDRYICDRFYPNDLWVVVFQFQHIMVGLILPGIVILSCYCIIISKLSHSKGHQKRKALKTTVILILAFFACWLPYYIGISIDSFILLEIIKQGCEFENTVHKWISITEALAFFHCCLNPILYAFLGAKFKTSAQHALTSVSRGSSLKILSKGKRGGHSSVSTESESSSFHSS
Procedure, shortened: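 CXCL-12 (25-50 ng/mL) was the stimulus, and the intracellular calcium rise was tracked kinetically by FLIPR at 37 °C. Cells were U87.CXCR4 transfectants pre-loaded 45 min at 37 °C with 4 μM (final) Fluo-2 AM in HEPES-buffered HBSS with 0.2% BSA, pH 7.4.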

[2] = Mouse brain uptake assay (MBUA), 3 mg/kg IV, 0-1 h, 3 time points; format: in vivo, male CD1 mice; settings: for clearance / half-life: CD1, plasma, 3 time points; for half-life: read-out: t½ (converted)
Procedure: Example 38: Pharmacokinetics and Brain Penetration Experiment to Determine Brain and Plasma Concentrations of Compounds after IV Administration to Male CD1 Mice
The study design (9 animals) consisted of administrating the drug (IV: 3 mg/kg (5 mL/kg) via tail vein injection) and collecting samples at terminal bleeding for plasma and brain at 0.083, 0.5 and 1 h. The IV dosing solution was prepared in 50 mM citrate buffer (pH 4.0) at 0.6 mg/mL. The blood collection was performed as follows: the animal was restrained manually and approximately 150 μL blood/time point was collected into a dipotassium EDTA tube via retro orbital puncture under anesthesia with isoflurane. The blood sample was put on ice and centrifuged to obtain a plasma sample (2000 g, 5 min under 4° C.) within 15 minutes. The brain collection was performed as follows: a mid-line incision was made in the animal's scalp and the skin was retracted. Using small bone cutters and rongeurs, the skull overlying the brain was removed. The brain was removed using a spatula and the brain rinsed with cold saline. The brain was placed in screw-top tubes, and the tubes were stored at −70° C. until analysis.
An aliquot of 30 μL sample was added to 150 μL MeCN containing 50 ng/mL IS (Dexamethasone). The mixture was vortexed for 5 min and centrifuged at 14,000 rpm for 5 min. An aliquot of 5 μL supernatant was injected for LC-MS/MS analysis.
An aliquot of 30 μL brain homogenate (brain:PBS=1:3, w/v) sample was added to 150 μL IS in MeCN (Dexamethasone, 50 ng/mL). The mixture was vortexed for 5 min and centrifuged at 14,000 rpm for 5 min. An aliquot of 5 μL supernatant was injected for LC-MS/MS analysis.
The sample analysis was performed on LCMS/MS-003 (API4000, triple quadruple) under the following conditions: positive ion, ESI, MRM detection using dexamethasone as internal standard. HPLC conditions: mobile phase A: H2O (0.025% formic acid (FA) with 1 mM NH4OAc); mobile phase B: MeOH (0.025% FA with 1 mM NH4OAc) on Waters X-Bridge C18 (2.1×50 mm, 2.5 μm) column at 60° C.

[3] = male, CD1, brain, mouse, 3 mg/kg IV, 0-1 h, read-out: AUClast (b)
[4] = male, CD1, plasma, mouse, 3 mg/kg IV, 0-1 h, read-out: AUClast (P)

Compound	Papp A→B at 90 min, 10 μM (in vitro)	Papp B→A at 90 min, 10 μM (in vitro)	efflux ratio at 90 min, 10 μM (in vitro)	IC50 [1]	Kp ([2]; male, CD1, mouse, brain/plasma, iv, 3 mg/kg)	clearance ([2]; male, mouse, 3 mg/kg IV, 0-1 h)	half-life ([2]; male, mouse, 3 mg/kg IV, 0-1 h)	AUC(0-t) [2, 3]	AUC(0-t) [2, 4]	Kp uu ([2]; male, CD1, unbound brain/unbound plasma, mouse, 3 mg/kg IV, 0-1 h, read-out: Kp, uu)	fraction unbound ([2]; mouse, fraction unbound to brain proteins, read-out: Fu (b) %)	fraction unbound ([2]; mouse, fraction unbound to plasma proteins, read-out: Fu (p) %)
CN1CCN(c2cccc3nc([C@H]4CCC[C@@H](c5ncccc5Cl)N4)[nH]c23)CC1 (racemic) [I-122]	10 to 30 ×10⁻⁶ cm/s	10 to 30 ×10⁻⁶ cm/s	0.1 to 10	0.01 to 100 nM	1.23	119 mL/min/kg	24.1 min	418 ng·h/mL	341 ng·h/mL	0.33	0.035	0.127
Cc1cccnc1[C@@H]1CCC[C@H](c2nc3cccc(N4CCN(C)CC4)c3[nH]2)N1C (racemic) [I-3, 2-((2R,6S)-1-methyl-6-(3-methylpyridin-2-yl)piperidin-2-yl)-7-(4-methylpiperazin-1-yl)-1H-benzo[d]imidazole]	0.1 to 10 ×10⁻⁶ cm/s	10 to 30 ×10⁻⁶ cm/s	–	0.01 to 100 nM	–	115 mL/min/kg	18 min	180 ng·h/mL	268 ng·h/mL	–	–	–

Source: patent US10988465B2, “CXCR4 inhibitors and uses thereof” (X4 Pharmaceuticals, Inc., priority 2016, dated 2021)
